Assay results published in US20240238242A1, “EGCG buccal tablet and use thereof” (priority 2023, published 2024).
Like-named read-outs stand apart in the source and are kept apart here.

Tested on: Influenza A H3N2 virus (H3N2)
Type: cell-based

How did the “CPE test, virus replication in cell wells (wells 1-10)” value (from here on “CPE test … (wells 1-10)”) (0.2 mM EGCG + H3N2 virus, 1 minute, first experiment, dilution factor 10^1) turn out when `O=C(O[C@@H]1Cc2c(O)cc(O)cc2O[C@@H]1c1cc(O)c(O)c(O)c1)c1cc(O)c(O)c(O)c1` [EGCG, Epigallocatechin gallate] was run?
The value was “+”.

What about the “CPE test … (wells 1-10)” value (0.2 mM EGCG + H3N2 virus, 1 minute, first experiment, dilution factor 10^2) of the same molecule?
Its value is “+”.

And the “CPE test … (wells 1-10)” value (0.2 mM EGCG + H3N2 virus, 1 minute, first experiment, dilution factor 10^3)?
The value was “+”.

And the “CPE test … (wells 1-10)” value (0.2 mM EGCG + H3N2 virus, 1 minute, first experiment, dilution factor 10^4)?
Its value is “+”.

And the “CPE test … (wells 1-10)” value (0.2 mM EGCG + H3N2 virus, 1 minute, first experiment, dilution factor 10^5)?
The value was “+ and −”.

What about the “CPE test … (wells 1-10)” value (0.2 mM EGCG + H3N2 virus, 1 minute, first experiment, dilution factor 10^6) of the same molecule?
The value was “−”.

And the “CPE test … (wells 1-10)” value (0.2 mM EGCG + H3N2 virus, 1 minute, first experiment, dilution factor 10^7)?
The value was “−”.

What about the “CPE test … (wells 1-10)” value (0.2 mM EGCG + H3N2 virus, 1 minute, first experiment, dilution factor 10^8) of the same molecule?
The value was “−”.

What about the “CPE test … (wells 1-10)” value (0.2 mM EGCG + H3N2 virus, 1 minute, second experiment, dilution factor 10^1) of the same molecule?
Its value is “+”.

What about the “CPE test … (wells 1-10)” value (0.2 mM EGCG + H3N2 virus, 1 minute, second experiment, dilution factor 10^2) of the same molecule?
The value was “+”.

What about the “CPE test … (wells 1-10)” value (0.2 mM EGCG + H3N2 virus, 1 minute, second experiment, dilution factor 10^3) of the same molecule?
Its value is “+”.

And the “CPE test … (wells 1-10)” value (0.2 mM EGCG + H3N2 virus, 1 minute, second experiment, dilution factor 10^4)?
Its value is “+”.

What about the “CPE test … (wells 1-10)” value (0.2 mM EGCG + H3N2 virus, 1 minute, second experiment, dilution factor 10^5) of the same molecule?
Its value is “+ and −”.

What about the “CPE test … (wells 1-10)” value (0.2 mM EGCG + H3N2 virus, 1 minute, second experiment, dilution factor 10^6) of the same molecule?
The value was “−”.

And the “CPE test … (wells 1-10)” value (0.2 mM EGCG + H3N2 virus, 1 minute, second experiment, dilution factor 10^7)?
The value was “−”.

And the “CPE test … (wells 1-10)” value (0.2 mM EGCG + H3N2 virus, 1 minute, second experiment, dilution factor 10^8)?
The value was “−”.

And the “CPE test, virus replication in cell wells 1-10” value (from here on “CPE test … in cell wells 1-10”) (0.2 mM EGCG + H3N2 virus, 1 minute, third experiment, dilution factor 10^1)?
Its value is “+”.

And the “CPE test … in cell wells 1-10” value (0.2 mM EGCG + H3N2 virus, 1 minute, third experiment, dilution factor 10^2)?
The value was “+”.

What about the “CPE test … in cell wells 1-10” value (0.2 mM EGCG + H3N2 virus, 1 minute, third experiment, dilution factor 10^3) of the same molecule?
The value was “+”.

What about the “CPE test … in cell wells 1-10” value (0.2 mM EGCG + H3N2 virus, 1 minute, third experiment, dilution factor 10^4) of the same molecule?
Its value is “+”.

And the “CPE test … in cell wells 1-10” value (0.2 mM EGCG + H3N2 virus, 1 minute, third experiment, dilution factor 10^5)?
The value was “+ and −”.

And the “CPE test … in cell wells 1-10” value (0.2 mM EGCG + H3N2 virus, 1 minute, third experiment, dilution factor 10^6)?
The value was “−”.

And the “CPE test … in cell wells 1-10” value (0.2 mM EGCG + H3N2 virus, 1 minute, third experiment, dilution factor 10^7)?
Its value is “−”.

What about the “CPE test … in cell wells 1-10” value (0.2 mM EGCG + H3N2 virus, 1 minute, third experiment, dilution factor 10^8) of the same molecule?
Its value is “−”.

And the “CPE test … in cell wells 1-10” value (0.2 mM EGCG + H3N2 virus, 5 minute, first experiment, dilution factor 10^1)?
The value was “+”.

What about the “CPE test … in cell wells 1-10” value (0.2 mM EGCG + H3N2 virus, 5 minute, first experiment, dilution factor 10^2) of the same molecule?
The value was “+”.

And the “CPE test … in cell wells 1-10” value (0.2 mM EGCG + H3N2 virus, 5 minute, first experiment, dilution factor 10^3)?
The value was “+”.

What about the “CPE test … in cell wells 1-10” value (0.2 mM EGCG + H3N2 virus, 5 minute, first experiment, dilution factor 10^4) of the same molecule?
The value was “+”.

What about the “CPE test … in cell wells 1-10” value (0.2 mM EGCG + H3N2 virus, 5 minute, first experiment, dilution factor 10^5) of the same molecule?
The value was “+ and −”.

What about the “CPE test … in cell wells 1-10” value (0.2 mM EGCG + H3N2 virus, 5 minute, first experiment, dilution factor 10^6) of the same molecule?
The value was “−”.

And the “CPE test … in cell wells 1-10” value (0.2 mM EGCG + H3N2 virus, 5 minute, first experiment, dilution factor 10^7)?
Its value is “−”.

And the “CPE test … in cell wells 1-10” value (0.2 mM EGCG + H3N2 virus, 5 minute, first experiment, dilution factor 10^8)?
Its value is “−”.

What about the “CPE test … in cell wells 1-10” value (0.2 mM EGCG + H3N2 virus, 5 minute, second experiment, dilution factor 10^1) of the same molecule?
The value was “+”.

And the “CPE test … in cell wells 1-10” value (0.2 mM EGCG + H3N2 virus, 5 minute, second experiment, dilution factor 10^2)?
Its value is “+”.

And the “CPE test … in cell wells 1-10” value (0.2 mM EGCG + H3N2 virus, 5 minute, second experiment, dilution factor 10^3)?
The value was “+”.

And the “CPE test … in cell wells 1-10” value (0.2 mM EGCG + H3N2 virus, 5 minute, second experiment, dilution factor 10^4)?
The value was “+”.

What about the “CPE test … in cell wells 1-10” value (0.2 mM EGCG + H3N2 virus, 5 minute, second experiment, dilution factor 10^5) of the same molecule?
The value was “− and +”.

And the “CPE test … in cell wells 1-10” value (0.2 mM EGCG + H3N2 virus, 5 minute, second experiment, dilution factor 10^6)?
The value was “−”.

And the “CPE test … in cell wells 1-10” value (0.2 mM EGCG + H3N2 virus, 5 minute, second experiment, dilution factor 10^7)?
The value was “−”.

And the “CPE test … in cell wells 1-10” value (0.2 mM EGCG + H3N2 virus, 5 minute, second experiment, dilution factor 10^8)?
Its value is “−”.

And the “residual virus titer of EGCG+virus group (Karber method)” value (0.2 mM EGCG, H3N2 virus, 1 minute)?
Its value is 10^5 TCID50/50 μL.

And the “average inactivation efficiency against virus” value (0.2 mM EGCG, H3N2 virus, 1 minute, three experiments)?
The value was 28.93%.

And the “inactivation efficiency against the virus” value (0.2 mM EGCG, H3N2 virus, 5 minutes, single experiment)?
The value was 84.15%.

What about the “average inactivation efficiency against virus” value (0.2 mM EGCG, H3N2 virus, 5 minutes, two experiments) of the same molecule?
Its value is 76.27%.

And the “CPE test … (wells 1-10)” value (1 mM EGCG + H3N2 virus, 1 minute, first experiment, dilution factor 10^2)?
The value was “+”.

And the “CPE test … (wells 1-10)” value (1 mM EGCG + H3N2 virus, 1 minute, first experiment, dilution factor 10^3)?
Its value is “+”.

What about the “CPE test … (wells 1-10)” value (1 mM EGCG + H3N2 virus, 1 minute, first experiment, dilution factor 10^4) of the same molecule?
Its value is “+”.

And the “CPE test … (wells 1-10)” value (1 mM EGCG + H3N2 virus, 1 minute, first experiment, dilution factor 10^5)?
Its value is “+ and −”.

And the “CPE test … (wells 1-10)” value (1 mM EGCG + H3N2 virus, 1 minute, first experiment, dilution factor 10^6)?
Its value is “−”.

And the “CPE test … (wells 1-10)” value (1 mM EGCG + H3N2 virus, 1 minute, first experiment, dilution factor 10^7)?
The value was “−”.

What about the “CPE test … (wells 1-10)” value (1 mM EGCG + H3N2 virus, 1 minute, first experiment, dilution factor 10^8) of the same molecule?
Its value is “−”.

And the “CPE test … (wells 1-10)” value (1 mM EGCG + H3N2 virus, 1 minute, second experiment, dilution factor 10^1)?
The value was “+”.

What about the “CPE test … (wells 1-10)” value (1 mM EGCG + H3N2 virus, 1 minute, second experiment, dilution factor 10^2) of the same molecule?
The value was “+”.

What about the “CPE test … (wells 1-10)” value (1 mM EGCG + H3N2 virus, 1 minute, second experiment, dilution factor 10^3) of the same molecule?
Its value is “+”.

And the “CPE test … (wells 1-10)” value (1 mM EGCG + H3N2 virus, 1 minute, second experiment, dilution factor 10^4)?
The value was “+ and −”.

What about the “CPE test … (wells 1-10)” value (1 mM EGCG + H3N2 virus, 1 minute, second experiment, dilution factor 10^5) of the same molecule?
The value was “+ and −”.

What about the “CPE test … (wells 1-10)” value (1 mM EGCG + H3N2 virus, 1 minute, second experiment, dilution factor 10^6) of the same molecule?
Its value is “−”.

And the “CPE test … (wells 1-10)” value (1 mM EGCG + H3N2 virus, 1 minute, second experiment, dilution factor 10^7)?
Its value is “−”.

What about the “CPE test … (wells 1-10)” value (1 mM EGCG + H3N2 virus, 1 minute, second experiment, dilution factor 10^8) of the same molecule?
The value was “−”.

And the “CPE test … in cell wells 1-10” value (1 mM EGCG + H3N2 virus, 1 minute, third experiment, dilution factor 10^2)?
Its value is “+”.

And the “CPE test … in cell wells 1-10” value (1 mM EGCG + H3N2 virus, 1 minute, third experiment, dilution factor 10^3)?
Its value is “+”.

What about the “CPE test … in cell wells 1-10” value (1 mM EGCG + H3N2 virus, 1 minute, third experiment, dilution factor 10^4) of the same molecule?
The value was “+”.

What about the “CPE test … in cell wells 1-10” value (1 mM EGCG + H3N2 virus, 1 minute, third experiment, dilution factor 10^5) of the same molecule?
The value was “− and +”.

What about the “CPE test … in cell wells 1-10” value (1 mM EGCG + H3N2 virus, 1 minute, third experiment, dilution factor 10^6) of the same molecule?
Its value is “−”.

And the “CPE test … in cell wells 1-10” value (1 mM EGCG + H3N2 virus, 1 minute, third experiment, dilution factor 10^7)?
Its value is “−”.

And the “CPE test … in cell wells 1-10” value (1 mM EGCG + H3N2 virus, 1 minute, third experiment, dilution factor 10^8)?
Its value is “−”.

What about the “CPE test … in cell wells 1-10” value (1 mM EGCG + H3N2 virus, 5 minute, first experiment, dilution factor 10^3) of the same molecule?
The value was “− and +”.

What about the “CPE test … in cell wells 1-10” value (1 mM EGCG + H3N2 virus, 5 minute, first experiment, dilution factor 10^4) of the same molecule?
Its value is “+ and −”.

And the “CPE test … in cell wells 1-10” value (1 mM EGCG + H3N2 virus, 5 minute, first experiment, dilution factor 10^5)?
The value was “−”.
